Assay results: patent US4080449A, “1,2,4,5-Tetrahydro-3H-2-benzazepin-3-ones” (U C B, Societe Anonyme, priority 1976, dated 1978)
Where “and” joins values, the source holds several entries; their conditions need not be identical. Equal values may be shown once.

How the values were obtained:
[1] = test system: lethality induced by a curarizing agent, oxydipentonium chloride (Brevatonal); assay: Brevatonal test (protection against lethality induced by oxydipentonium chloride, hypoxia); type: in vivo; conditions: mice, i.p.
Description: At the doses used, this curarizing agent brings about a respiratory depression which, in turn, brings about a hypoxi-hypercapnic syndrome. A compound capable of protecting the brain during this short period of hypoxia ensures survival. The compounds are administered to groups of 10 mice one hour before the injection of the curarizing agent; concurrently herewith, a control group of 10 mice is given a physiological salt solution prior to the curarizing agent. For each compound, the proportion of surviving mice is compared with the proportion of surviving control mice by the "Fisher exact probability test". This test, called the Brevatonal test, has also been developed in our laboratories.
Intraperitoneal administration (i.p.) of compounds according to the present invention, namely, 2-methyl-1,2,4,5-tetrahydro-3H-2-benzazepin-3-one (compound A), 2,4-dimethyl-1,2,4,5-tetrahydro-3H-2-benzazepin-3-one (compound G), 2-isobutyl-4-methyl-1,2,4,5-tetrahydro-3H-2-benzazepin-3-one(compound H), 7-chloro-2-methyl-1,2,4,5-tetrahydro-3H-2-benzazepin-3-one (compound J) 8-chloro-2-methyl-1,2,4,5-tetrahydro-3H-2-benzazepin-3-one (compound K) and 8-methyl-2-pentyl-1,2,4,5-tetrahydro-3H-2-benzazepin-3-one (compound L), produces under these conditions the effects set out in the following Table II.

[2] = test system: withdrawal reaction of a rat's paw; assay: active avoidance test (memory retention, paw pressure withdrawal); type: in vivo; conditions: for Stimulus initiating the avoidance reaction 24 hours after the first stimulation: s.c.; for minimal effective dose: sc, minimum dose which lowers the stimulus to below 110 g
Text: The principle of the active avoidance test, which has been developed in our laboratories and used for this purpose, may be described as follows: the withdrawal reaction of a rat's paw subjected to an increasing and measured pressure is observed. The pressure at which the withdrawal reaction is produced is called the reaction threshold. The latter is expressed in grams and thus corresponds to the minimum pressure which, when applied to the paw of the animals, causes withdrawal. It is read off directly from a scale of the apparatus used. […] Use is made of a minimum of 20 rats per test (10 treated rats and 10 control rats), the active dose being defined as the minimum dose which lowers the stimulus to below 110 g.

[3] = pharmacological properties of the compounds according to the present invention (Table III footnote, test not specified); type: in vivo
spinal fixation time [4] = assay: spinal fixation test (elementary model of memory) after unilateral cerebellar lesion; type: in vivo; conditions: rat, i.p., 0.1 mmole/kg (A 17.5, B 22, C 23.7 mg/kg); spinal section 35 minutes after onset of asymmetry
Text: Action on the mnemic processes is shown particularly by the reduction in the time for spinal fixation, a test which has been described in the literature (see C. Giurgea and F. Mouravieff-Lesuisse, Arch. Int. Pharmacodyn, 191/2, (1971), 279) as an elementary model of memory which is endowed with a pharmacological reactivity in good correlation with clinical physiopathology. In the rat, after unilateral lesion of the cerebellum, there is a postural asymmetry of the hind paws. This asymmetry may persist, even after spinal section, if the animal has been in this situation for a sufficiently long time. This time, which is called the spinal fixation time, is 45 minutes under the experimental conditions. On the other hand, if spinal section is performed before the expiry of this period, for example 35 minutes after the onset of the asymmetry, the latter disappears. […] Conversely, any product which allows the rats to retain the asymmetry (thus achieving spinal fixation) when the spinal section is carried out after 35 minutes, is regarded as being active.
Under these conditions, administration of a compound according to the present invention, for example 2-methyl-1,2,4,5-tetrahydro-3H-2-benzazepin-3-one (compound A), 2-carbamoylmethyl-1,2,4,5-tetrahydro-3H-2-benzazepin-3-one (compound B) and 5-phenyl-1,2,4,5-tetrahydro-3H-2-benzazepin-3-one (compound C) produces the following effects: […]

[5] = LD50 determined intraperitoneally in the rat (Spearman-Karber); conditions: in vivo, ip, intraperitoneal
Description: The LD50 doses were determined intraperitoneally in the rat and calculated by using the method of Spearman-Karber (D. J. Finney, Statistical Methods in Biological Assay, pub. Griffin & Co., London, 1952, p. 524).

spinal fixation time [6] = conditions: rat, 30 mg/kg (0.2 millimole/kg), same conditions; C. Giurgea and F. Mouravieff-Lesuisse, loc.cit.; cited from earlier work
[7] = 2 mg/kg (0.01 mmole/kg), control G 1/10, H 2/10
[8] = 0.175 mg/kg, control (0 mg/kg) A 164, F 154

CC1Cc2ccccc2CN(C)C1=O (stereo not shown) [G, 2,4-dimethyl-1,2,4,5-tetrahydro-3H-2-benzazepin-3-one]
Fisher exact probability ([1]; 2 mg/kg (0.01 mmole/kg)): < 0.05 | Proportion of survivors, treated animals [1, 7]: 6/10

CN1Cc2cc(Cl)ccc2CCC1=O [K, 8-chloro-2-methyl-1,2,4,5-tetrahydro-3H-2-benzazepin-3-one]
Fisher exact probability ([1]; 21 mg/kg (0.12 mmole/kg as printed)): < 0.05 | Proportion of survivors, treated animals ([1]; 21 mg/kg (0.12 mmole/kg as printed), control 1/10): 6/10 | Fisher exact probability ([1]; 66 mg/kg (0.37 mmole/kg as printed)): < 0.05 | Proportion of survivors, treated animals ([1]; 66 mg/kg (0.37 mmole/kg as printed), control 1/10): 6/10

Cc1ccc2c(c1)CNC(=O)CC2 [F, 8-methyl-1,2,4,5-tetrahydro-3H-2-benzazepin-3-one]
Stimulus initiating the avoidance reaction 24 hours after the first stimulation [2, 8]: 121 g | Stimulus initiating the avoidance reaction 24 hours after the first stimulation ([2]; 0.35 mg/kg, control (0 mg/kg) 154): 111 g | Stimulus initiating the avoidance reaction 24 hours after the first stimulation ([2]; 0.87 mg/kg, control (0 mg/kg) 154): 101 g | minimal effective dose [2]: 0.87 mg/kg and 5 µmol/kg

CN1Cc2ccc(Cl)cc2CCC1=O [J, 7-chloro-2-methyl-1,2,4,5-tetrahydro-3H-2-benzazepin-3-one]
Fisher exact probability ([1]; 21 mg/kg (0.1 mmole/kg)): < 0.01 | Proportion of survivors, treated animals ([1]; 21 mg/kg (0.1 mmole/kg), control 1/10): 7/10 | Fisher exact probability ([1]; 66 mg/kg (0.32 mmole/kg)): < 0.005 | Proportion of survivors, treated animals ([1]; 66 mg/kg (0.32 mmole/kg), control 1/10): 8/10

O=C1CCc2ccccc2CN1 [1,2,4,5-tetrahydro-3H-2-benzazepin-3-one]
pharmacological properties of the compounds according to the present invention [3]: does not have th

CCCCCN1Cc2ccccc2CC(C)C1=O (stereo not shown) [E, 4-methyl-2-pentyl-1,2,4,5-tetrahydro-3H-2-benzazepin-3-one]
Stimulus initiating the avoidance reaction 24 hours after the first stimulation ([2]; 0.24 mg/kg, control (0 mg/kg) 166): 122 g | Stimulus initiating the avoidance reaction 24 hours after the first stimulation ([2]; 0.49 mg/kg, control (0 mg/kg) 166): 89 g | minimal effective dose [2]: 0.49 mg/kg and 2 µmol/kg

NC(=O)CN1Cc2ccccc2CCC1=O [B, 2-carbamoylmethyl-1,2,4,5-tetrahydro-3H-2-benzazepin-3-one]
spinal fixation after 35 minutes (animals with fixation) (spinal fixation time [4]): two animals out of four

CN1Cc2ccccc2CCC1=O [A, 2-methyl-1,2,4,5-tetrahydro-3H-2-benzazepin-3-one]
spinal fixation after 35 minutes (animals with fixation) (spinal fixation time [4]): three animals out of five | LD50 [5]: 760 mg/kg | Stimulus initiating the avoidance reaction 24 hours after the first stimulation ([2]; 0.09 mg/kg, control (0 mg/kg) 164): 146 g | Stimulus initiating the avoidance reaction 24 hours after the first stimulation [2, 8]: 106 g | minimal effective dose [2]: 0.175 mg/kg and 1 µmol/kg | Fisher exact probability ([1]; 55 mg/kg (0.32 mmole/kg)): < 0.005 | Proportion of survivors, treated animals ([1]; 55 mg/kg (0.32 mmole/kg), control 0/10): 7/10

CCCCCN1Cc2cc(C)ccc2CCC1=O [L, 8-methyl-2-pentyl-1,2,4,5-tetrahydro-3H-2-benzazepin-3-one]
Fisher exact probability ([1]; 78 mg/kg (0.32 mmole/kg)): < 0.05 | Proportion of survivors, treated animals ([1]; 78 mg/kg (0.32 mmole/kg), control 0/5): 6/10

CC(C)CN1Cc2ccccc2CC(C)C1=O (stereo not shown) [H, 2-isobutyl-4-methyl-1,2,4,5-tetrahydro-3H-2-benzazepin-3-one]
Fisher exact probability ([1]; 2 mg/kg (0.01 mmole/kg)): < 0.005 | Proportion of survivors, treated animals [1, 7]: 9/10 | Fisher exact probability ([1]; 7 mg/kg (0.032 mmole/kg)): < 0.05 | Proportion of survivors, treated animals ([1]; 7 mg/kg (0.032 mmole/kg), control 2/10): 7/10 | Fisher exact probability ([1]; 23 mg/kg (0.1 mmole/kg)): < 0.001 | Proportion of survivors, treated animals ([1]; 23 mg/kg (0.1 mmole/kg), control 1/10): 9/10

NC(=O)CN1CCCC1=O [piracetam, reference compound]
Stimulus initiating the avoidance reaction 24 hours after the first stimulation ([2]; 1.5 mg/kg, control (0 mg/kg) 153): 120 g | Stimulus initiating the avoidance reaction 24 hours after the first stimulation ([2]; 3.5 mg/kg, control (0 mg/kg) 153): 90 g | minimal effective dose [2]: 3.5 mg/kg and 25 µmol/kg | retention in active avoidance test ([2]; tested 24 hours later, versus control animals, dose not given in sentence): significant degree of retention | Fisher exact probability ([1]; 45 mg/kg (0.32 mmole/kg)): not significant | Proportion of survivors, treated animals ([1]; 45 mg/kg (0.32 mmole/kg), control 0/10): 1/10 | Fisher exact probability ([1]; 142 mg/kg (1 mmole/kg)): not significant | Proportion of survivors, treated animals ([1]; 142 mg/kg (1 mmole/kg), control 2/10): 4/10 | Fisher exact probability ([1]; 454 mg/kg (3.2 mmole/kg)): < 0.005 | Proportion of survivors, treated animals ([1]; 454 mg/kg (3.2 mmole/kg), control 1/10): 8/10 | spinal fixation (animals with fixation) (spinal fixation time [6]): four animals out of nine

O=C1CC(c2ccccc2)c2ccccc2CN1 (stereo not shown) [C, 5-phenyl-1,2,4,5-tetrahydro-3H-2-benzazepin-3-one]
spinal fixation after 35 minutes (animals with fixation) (spinal fixation time [4]): four animals out of five

COc1ccc2c(c1)CCC(=O)N(C)C2 [D, 7-methoxy-2-methyl-1,2,4,5-tetrahydro-3H-2-benzazepin-3-one]
Stimulus initiating the avoidance reaction 24 hours after the first stimulation ([2]; 0.205 mg/kg, control (0 mg/kg) 165): 118 g | Stimulus initiating the avoidance reaction 24 hours after the first stimulation ([2]; 1 mg/kg, control (0 mg/kg) 165): 90 g | minimal effective dose [2]: 1 mg/kg and 5 µmol/kg
